Laboratory results reported in ChEMBL document CHEMBL1201862, “PubChem BioAssay data set” (2004).
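Cells were grown in 96-well plates and exposed to each compound for 48 hours at five concentrations; endpoints were interpolated linearly between bracketing concentrations, or set to the highest concentration if not reached. At the GI50, growth is halved.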 Activity calls are given as the source filed them. Cut-off read from the data, not from the text of the source: active = GI50 up to about 1.1 µM and inactive = higher.

Key:
Assay in all cases: growth of human tumour cells (NCI), 48 h
786-0 = system: 786-0
A498 = system: A498
A549 = system: A549
ACHN = system: ACHN
BT-549 = system: BT-549
CAKI-1 = system: CAKI-1
CCRF-CEM = system: CCRF-CEM
COLO 205 = system: COLO 205
DU-145 = system: DU-145
EKVX = system: EKVX
HCC 2998 = system: HCC 2998
HCT-116 = system: HCT-116
HCT-15 = system: HCT-15
HL-60 = system: HL-60
HOP-62 = system: HOP-62
HT-29 = system: HT-29
Hs-578T = system: Hs-578T
IGROV-1 = system: IGROV-1
K562 = system: K562
KM12 = system: KM12
LOX IMVI = system: LOX IMVI
M14 = system: M14
MCF7 = system: MCF7
MDA-MB-231 = system: MDA-MB-231
MDA-MB-435 = system: MDA-MB-435
MDA-N = system: MDA-N
MOLT-4 = system: MOLT-4
Malme-3M = system: Malme-3M
NCI-H226 = system: NCI-H226
NCI-H23 = system: NCI-H23
NCI-H522 = system: NCI-H522
NCI/ADR-RES = system: NCI/ADR-RES
OVCAR-3 = system: OVCAR-3
OVCAR-4 = system: OVCAR-4
OVCAR-5 = system: OVCAR-5
OVCAR-8 = system: OVCAR-8
PC-3 = system: PC-3
RPMI-8226 = system: RPMI-8226
RXF 393 = system: RXF 393
SF-268 = system: SF-268
SF-295 = system: SF-295
SF-539 = system: SF-539
SK-MEL-28 = system: SK-MEL-28
SK-MEL-2 = system: SK-MEL-2
SK-MEL-5 = system: SK-MEL-5
SK-OV-3 = system: SK-OV-3
SN12C = system: SN12C
SNB-19 = system: SNB-19
SNB-75 = system: SNB-75
SR = system: SR
SW-620 = system: SW-620
T47D = system: T47D
TK-10 = system: TK-10
U-251 = system: U-251
UACC-257 = system: UACC-257
UACC-62 = system: UACC-62
UO-31 = system: UO-31
HOP-92 = system: HOP-92
NCI-H460 = system: NCI-H460

Structure (SMILES): CS(=O)(=O)c1nc(-c2cc3c(c(S(C)(=O)=O)n2)CCCC3)cc2c1CCCC2
- GI50 (786-0): 41 µM (inactive)
- GI50 (A498): > 100 µM (inactive)
- GI50 (A549): > 100 µM (inactive)
- GI50 (ACHN): > 100 µM (inactive)
- GI50 (BT-549): > 43.2 µM (inactive)
- GI50 (CAKI-1): > 39.9 µM (inactive)
- GI50 (CCRF-CEM): > 100 µM (inactive)
- GI50 (COLO 205): > 100 µM (inactive)
- GI50 (DU-145): > 100 µM (inactive)
- GI50 (EKVX): > 70.1 µM (inactive)
- GI50 (HCC 2998): > 100 µM (inactive)
- GI50 (HCT-116): > 100 µM (inactive)
- GI50 (HCT-15): > 100 µM
- GI50 (HL-60): > 100 µM (inactive)
- GI50 (HOP-62): 21 µM (inactive)
- GI50 (HT-29): > 100 µM (inactive)
- GI50 (Hs-578T): 12.4 µM (inactive)
- GI50 (IGROV-1): > 21.8 µM (inactive)
- GI50 (K562): > 100 µM (inactive)
- GI50 (KM12): > 100 µM (inactive)
- GI50 (LOX IMVI): > 62.4 µM (inactive)
- GI50 (M14): > 100 µM (inactive)
- GI50 (MCF7): > 100 µM (inactive)
- GI50 (MDA-MB-231): 56.5 µM (inactive)
- GI50 (MDA-MB-435): > 100 µM (inactive)
- GI50 (MDA-N): > 100 µM (inactive)
- GI50 (MOLT-4): > 100 µM (inactive)
- GI50 (Malme-3M): > 100 µM (inactive)
- GI50 (NCI-H226): > 100 µM (inactive)
- GI50 (NCI-H23): > 63 µM (inactive)
- GI50 (NCI-H522): > 39.8 µM (inactive)
- GI50 (NCI/ADR-RES): > 64.3 µM (inactive)
- GI50 (OVCAR-3): > 100 µM (inactive)
- GI50 (OVCAR-4): > 100 µM (inactive)
- GI50 (OVCAR-5): > 100 µM (inactive)
- GI50 (OVCAR-8): > 35.4 µM (inactive)
- GI50 (PC-3): > 100 µM (inactive)
- GI50 (RPMI-8226): > 100 µM (inactive)
- GI50 (RXF 393): 26.1 µM (inactive)
- GI50 (SF-268): 11.8 µM (inactive)
- GI50 (SF-295): 33.6 µM (inactive)
- GI50 (SF-539): > 65.2 µM (inactive)
- GI50 (SK-MEL-28): > 100 µM (inactive)
- GI50 (SK-MEL-2): > 54.3 µM (inactive)
- GI50 (SK-MEL-5): > 100 µM (inactive)
- GI50 (SK-OV-3): > 35.1 µM (inactive)
- GI50 (SN12C): > 100 µM (inactive)
- GI50 (SNB-19): > 55.7 µM (inactive)
- GI50 (SNB-75): 6.75 µM (inactive)
- GI50 (SR): > 100 µM (inactive)
- GI50 (SW-620): > 100 µM (inactive)
- GI50 (T47D): > 100 µM (inactive)
- GI50 (TK-10): > 64.6 µM (inactive)
- GI50 (U-251): > 55.3 µM (inactive)
- GI50 (UACC-257): > 100 µM (inactive)
- GI50 (UACC-62): > 38.4 µM (inactive)
- GI50 (UO-31): 0.048 µM (active)

Structure (SMILES): CCOC(=O)CSc1nnc2cc(CN3CCCC3)c(-c3ccc(Cl)cc3)nn12
- GI50 (786-0): 92.3 µM (inactive)
- GI50 (A498): > 100 µM (inactive)
- GI50 (A549): > 100 µM (inactive)
- GI50 (ACHN): > 100 µM (inactive)
- GI50 (BT-549): > 100 µM (inactive)
- GI50 (CAKI-1): > 100 µM (inactive)
- GI50 (CCRF-CEM): 48.1 µM (inactive)
- GI50 (COLO 205): > 100 µM (inactive)
- GI50 (DU-145): 71.6 µM (inactive)
- GI50 (EKVX): > 100 µM (inactive)
- GI50 (HCT-116): > 100 µM (inactive)
- GI50 (HCT-15): > 100 µM
- GI50 (HL-60): 89.3 µM (inactive)
- GI50 (HOP-62): > 100 µM (inactive)
- GI50 (HOP-92): > 100 µM (inactive)
- GI50 (HT-29): 74.5 µM (inactive)
- GI50 (Hs-578T): > 100 µM (inactive)
- GI50 (IGROV-1): > 100 µM (inactive)
- GI50 (K562): 83.8 µM (inactive)
- GI50 (KM12): > 100 µM (inactive)
- GI50 (LOX IMVI): > 100 µM (inactive)
- GI50 (M14): > 100 µM (inactive)
- GI50 (MCF7): 46.9 µM (inactive)
- GI50 (MDA-MB-231): > 100 µM (inactive)
- GI50 (MDA-MB-435): 72.9 µM (inactive)
- GI50 (MDA-N): 85.9 µM (inactive)
- GI50 (MOLT-4): 38.5 µM (inactive)
- GI50 (Malme-3M): > 100 µM (inactive)
- GI50 (NCI-H226): > 100 µM (inactive)
- GI50 (NCI-H23): > 100 µM (inactive)
- GI50 (NCI-H460): 48.4 µM (inactive)
- GI50 (NCI-H522): 39.7 µM (inactive)
- GI50 (NCI/ADR-RES): > 100 µM (inactive)
- GI50 (OVCAR-3): > 100 µM (inactive)
- GI50 (OVCAR-4): 33.6 µM (inactive)
- GI50 (OVCAR-5): > 100 µM (inactive)
- GI50 (OVCAR-8): > 100 µM (inactive)
- GI50 (PC-3): > 100 µM (inactive)
- GI50 (RPMI-8226): 63.2 µM (inactive)
- GI50 (RXF 393): 86.5 µM (inactive)
- GI50 (SF-268): > 100 µM (inactive)
- GI50 (SF-295): > 100 µM (inactive)
- GI50 (SF-539): 60.1 µM (inactive)
- GI50 (SK-MEL-28): > 100 µM (inactive)
- GI50 (SK-MEL-2): > 100 µM (inactive)
- GI50 (SK-MEL-5): > 100 µM (inactive)
- GI50 (SK-OV-3): > 100 µM (inactive)
- GI50 (SN12C): > 100 µM (inactive)
- GI50 (SNB-19): > 100 µM (inactive)
- GI50 (SNB-75): 85.5 µM (inactive)
- GI50 (SR): 41 µM (inactive)
- GI50 (SW-620): > 100 µM (inactive)
- GI50 (T47D): 57.5 µM (inactive)
- GI50 (TK-10): > 100 µM (inactive)
- GI50 (U-251): > 100 µM (inactive)
- GI50 (UACC-257): 91.4 µM (inactive)
- GI50 (UACC-62): > 100 µM (inactive)
- GI50 (UO-31): > 100 µM (inactive)
